System: SEM cells
Test: cell viability relative to DMSO control; higher = less cytotoxic
Settings: 48 h
Summary of the method: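 NOMO1, SEM and P12-Ichikawa leukemia cells spent at least four passages adapting to each medium before use. They were seeded at 500 cells/well (NOMO1, SEM) or 1000 cells/well (P12-Ichikawa) in 5 μl in 1536-well plates and pin-dosed with library compounds in DMSO at 11 threefold steps from 47 μM down to 0.79 nM. After 48 h at 37°C, CellTiter-Glo One luminescence was read. Viability is reported as a percentage of the DMSO wells on each plate, with cell-free wells as background.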

[1] = HPLM + 10% dialyzed FBS, 0.000781 µM
[2] = HPLM + 10% dialyzed FBS, 0.00234 µM
[3] = HPLM + 10% dialyzed FBS, 0.00702 µM
[4] = HPLM + 10% dialyzed FBS, 0.0211 µM
[5] = HPLM + 10% dialyzed FBS, 0.0632 µM
[6] = HPLM + 10% dialyzed FBS, 0.19 µM
[7] = HPLM + 10% dialyzed FBS, 0.569 µM
[8] = HPLM + 10% dialyzed FBS, 1.71 µM
[9] = HPLM + 10% dialyzed FBS, 5.12 µM
[10] = HPLM + 10% dialyzed FBS, 15.4 µM
[11] = HPLM + 10% dialyzed FBS, 46.1 µM
[12] = RPMI 5 mM glucose + 10% dialyzed FBS, 0.000781 µM
[13] = RPMI 5 mM glucose + 10% dialyzed FBS, 0.00234 µM
[14] = RPMI 5 mM glucose + 10% dialyzed FBS, 0.00702 µM
[15] = RPMI 5 mM glucose + 10% dialyzed FBS, 0.0211 µM
[16] = RPMI 5 mM glucose + 10% dialyzed FBS, 0.0632 µM
[17] = RPMI 5 mM glucose + 10% dialyzed FBS, 0.19 µM
[18] = RPMI 5 mM glucose + 10% dialyzed FBS, 0.569 µM
[19] = RPMI 5 mM glucose + 10% dialyzed FBS, 1.71 µM
[20] = RPMI 5 mM glucose + 10% dialyzed FBS, 5.12 µM
[21] = RPMI 5 mM glucose + 10% dialyzed FBS, 15.4 µM
[22] = RPMI 5 mM glucose + 10% dialyzed FBS, 46.1 µM
[23] = RPMI 5 mM glucose + 10% FBS, 0.000781 µM
[24] = RPMI 5 mM glucose + 10% FBS, 0.00234 µM
[25] = RPMI 5 mM glucose + 10% FBS, 0.00702 µM
[26] = RPMI 5 mM glucose + 10% FBS, 0.0211 µM
[27] = RPMI 5 mM glucose + 10% FBS, 0.0632 µM
[28] = RPMI 5 mM glucose + 10% FBS, 0.19 µM
[29] = RPMI 5 mM glucose + 10% FBS, 0.569 µM
[30] = RPMI 5 mM glucose + 10% FBS, 1.71 µM
[31] = RPMI 5 mM glucose + 10% FBS, 5.12 µM
[32] = RPMI 5 mM glucose + 10% FBS, 15.4 µM
[33] = RPMI 5 mM glucose + 10% FBS, 46.1 µM

SMILES	cell viability [1]	cell viability [2]	cell viability [3]	cell viability [4]	cell viability [5]	cell viability [6]	cell viability [7]	cell viability [8]	cell viability [9]	cell viability [10]	cell viability [11]	cell viability [12]	cell viability [13]	cell viability [14]	cell viability [15]	cell viability [16]	cell viability [17]	cell viability [18]	cell viability [19]	cell viability [20]	cell viability [21]	cell viability [22]	cell viability [23]	cell viability [24]	cell viability [25]	cell viability [26]	cell viability [27]	cell viability [28]	cell viability [29]	cell viability [30]	cell viability [31]	cell viability [32]	cell viability [33]
NC\1=N\C(=O)N(\C=C1F)[C@H]2C[C@H](O)[C@@H](CO)O2	110%	123%	116%	89.9%	63.4%	30.8%	47.2%	43.6%	45.5%	34.7%	39.7%	125%	128%	93%	53.8%	38.7%	21.8%	35.4%	40.1%	28%	30.1%	28.5%	–	–	–	–	–	–	–	–	–	–	–
COC(=O)C/1=C(C)/N/C(=C(\C1C2=CC(=CC=C2)[N+]([O-])=O)C(=O)OCCCN3CCC(CC3)(C4=CC=CC=C4)C5=CC=CC=C5)C (stereo unspecified)	113%	94.1%	114%	42%	95.5%	104%	100%	109%	90.3%	94.8%	98.6%	100%	92.3%	100%	43.2%	97.2%	95.6%	101%	112%	96.5%	100%	102%	93.4%	97.7%	98.2%	39.7%	90.3%	97.8%	98%	95.7%	104%	106%	91.1%
CCC(C1CCC(C)C(O1)C(C)C(O)C(C)C(=O)C(CC)C2OC\3(O[C@]4(CC[C@@](C)(O4)C5CC[C@@](O)(CC)C(C)O5)C(O)\C=C3)C(C)CC2C)C([O-])=O (stereo partly specified)	105%	13.3%	124%	103%	113%	118%	116%	77.4%	29.6%	22.9%	21.3%	58.1%	15%	97.9%	97.9%	113%	97.8%	89.1%	50.2%	26.9%	22.5%	14.3%	107%	101%	110%	107%	110%	109%	98.3%	55%	25.5%	14.3%	10.4%
N#Cc1ccc(NC(=O)Nc2ccccc2Br)c2nn[nH]c12	81.8%	93.9%	110%	103%	107%	108%	123%	126%	125%	109%	112%	93.1%	103%	108%	99%	116%	129%	125%	124%	121%	114%	107%	80.7%	111%	97.9%	91.4%	113%	103%	101%	101%	107%	104%	81.7%
CN(C)CCc1c[nH]c2ccc(C[S+](=O)([O-])N3CCCC3)cc12	78.9%	97.3%	91.4%	104%	97.1%	97.5%	94%	109%	97.8%	86.8%	83.6%	87.5%	96%	91.5%	98.4%	107%	96.2%	88.5%	96.7%	84.4%	77.2%	65%	83.9%	93.4%	85.7%	93.7%	101%	104%	96.8%	101%	87.2%	60.5%	67.4%
O=C1CCCC(=O)C1C(=O)c1ccc(C(F)(F)F)cc1[N+](=O)[O-]	112%	115%	100%	107%	108%	108%	114%	102%	106%	113%	108%	105%	104%	110%	110%	127%	106%	111%	129%	113%	115%	102%	109%	103%	112%	98.4%	109%	97.5%	112%	101%	108%	85.9%	86%
Clc1ccccc1C(c1ccccc1)(c1ccccc1)n1ccnc1	118%	114%	126%	121%	117%	119%	112%	55.8%	103%	104%	73.3%	–	–	–	–	–	–	–	–	–	–	–	117%	110%	126%	123%	118%	108%	106%	53.3%	101%	86.6%	69.6%
Oc1ccc(-c2ccc(-c3cc(Nc4cccc(CNC5CC5)c4)[nH]n3)cc2)c(O)c1	82.4%	100%	93.7%	93.7%	70.7%	103%	91.1%	46.7%	25.7%	9.24%	6.68%	89%	96.9%	100%	87.9%	84.1%	99.6%	100%	84.8%	60.2%	22.8%	9.47%	97.8%	106%	95%	101%	72.6%	89.7%	110%	94.5%	45.7%	27.4%	4.97%
CC(C)(C)OC(=O)Nc1ccc(-c2cc(C(=O)NCCCCCCC(=O)NO)no2)cc1	87.5%	87.7%	95.7%	102%	77.4%	99.6%	102%	72.4%	33.5%	4.09%	4.02%	84.3%	83.2%	79.8%	88.9%	79.7%	90.7%	87.7%	28.1%	20.1%	3.52%	3.79%	94.9%	88.1%	102%	101%	74.7%	101%	107%	44.2%	30.2%	4.09%	4.76%
Oc1c(Cl)cc(Cl)c2cccnc12	112%	77%	121%	104%	109%	120%	122%	108%	104%	66.3%	12.3%	107%	93.8%	85.1%	97.2%	97.5%	96.3%	101%	116%	99.1%	59.8%	7.1%	108%	102%	94%	103%	102%	113%	120%	91.4%	112%	71%	7.14%
COC(=O)[C@H](c1ccccc1Cl)N1CCc2sccc2C1	75.5%	89.5%	105%	110%	96.3%	111%	106%	120%	109%	121%	111%	84.1%	84.1%	86.5%	108%	110%	91.6%	95.3%	135%	116%	122%	99.5%	87.5%	80.4%	97.2%	98.9%	93.3%	102%	106%	103%	107%	107%	108%
CCN(CC)CCCC(C)Nc1nc(C)cc(Nc2ccc3nc(C)cc(N)c3c2)n1 (stereo unspecified)	100%	104%	96.1%	100%	101%	115%	106%	114%	110%	99.7%	88.2%	115%	97.1%	113%	107%	100%	118%	98.9%	106%	96.4%	99.6%	86.4%	75.2%	80.4%	75.3%	72.2%	69.6%	65.5%	75.5%	75.6%	63.9%	66.1%	72%
CN(C)[C@@H](CCOc1cccc2ccccc12)c1ccccc1	139%	115%	125%	110%	119%	120%	100%	108%	111%	107%	65%	101%	121%	117%	127%	131%	129%	91.5%	132%	101%	136%	81%	120%	122%	122%	127%	132%	131%	103%	118%	95.7%	114%	71.2%
COc1cc2ncnc(Nc3cccc(Cl)c3)c2cc1OC	99.7%	112%	93.1%	105%	77.8%	62.7%	53.5%	30.7%	32.4%	31.3%	4.45%	98.5%	111%	93%	102%	77.7%	58.8%	59.1%	22.8%	19.3%	9.12%	3.77%	121%	118%	113%	119%	76.8%	50.2%	50.7%	19.1%	7.71%	6.3%	4.71%
CN1CCN(CCCN2c3ccccc3Sc3ccc(Cl)cc32)CC1.O=C(O)/C=C\C(=O)O.O=C(O)/C=C\C(=O)O	105%	112%	110%	113%	108%	112%	104%	114%	112%	117%	82.2%	101%	99.7%	128%	113%	115%	122%	119%	133%	133%	116%	104%	102%	113%	118%	111%	129%	122%	119%	121%	119%	115%	68.6%
O=C(NCC1CCOCC1)c1cnc(Nc2ccc(Cl)cc2Cl)nc1C(F)(F)F	89.6%	98.1%	99%	67.7%	108%	103%	106%	102%	99.5%	114%	117%	94.2%	97.8%	108%	67.9%	121%	119%	113%	112%	91.7%	123%	101%	95.9%	103%	108%	61.9%	99.1%	100%	99.7%	103%	99.1%	105%	98.5%

Reference: the supplement of paper PMC11451515
